Measurements from patent publication US4161520A, “Method of treating hypertension” (priority 1976, dated 1979).

Columns and labels:
[1] = tested on: DOCA-Na. rat; assay: Comparative antihypertensive activity of polyether ionophores in the DOCA-Na rat (Example 3, Table III); format: in vivo; conditions: oral, five-day period, daily dose 1/100 of oral LD50 up to 10 mg/kg/day; for AHR (Subacute antihypertensive ratio): bromolasalocid as standard reference; for DURATION OF EFFECT: monitored until return to pre-drug levels
Method: Using bromolasalocid as a standard for comparison, a number of polyether ionophores were tested for antihypertensive activity. The tests were conducted utilizing single oral dosages in the DOCA-Na. rat over a five-day period with dosing discontinued thereafter. Blood pressure monitoring was carried out for the five-day period and daily after cessation of dosing until blood pressure returned to pre-drug levels. […] The daily dosage was calculated by using one-one hundredth (1/100) of the oral (per os) toxicity (LD50) up to a maximum of 10 mg/kg/day. The antihypertensive activity expressed as AHR (Subacute antihypertensive ratio) was calculated using bromolasalocid as the standard reference (Table III).

[2] = Oral (per os) toxicity (LD50); format: in vivo

## COC1CCC(OC2C(C)C(O)(C(C)C(=O)O)OC(CC3CC(OC)C(C)C4(O3)OC(C)(C3CCC(C5CCC(C6OC(C)(O)C(C)C(OC)C6C)O5)O3)C(OC)C4C)C2(C)OC)OC1C (stereo not shown) [A-204]
[1]
  ONSET TO MAX. RESPONSE: 4 days
  AHR (Subacute antihypertensive ratio): 86.6
  DURATION OF EFFECT: 5 days
[2]
  LD50: 14 mg/kg

## CNc1ccc2oc(C[C@H]3O[C@@]4(CC[C@H]3C)O[C@H]([C@H](C)C(=O)c3ccc[nH]3)[C@H](C)C[C@H]4C)nc2c1C(=O)O [A-23187]
[1]
  ONSET TO MAX. RESPONSE: 4 days
  AHR (Subacute antihypertensive ratio): 0.93
  DURATION OF EFFECT: 10 days
[2]
  LD50: > 1000 mg/kg

## CO[C@@H]1C[C@@H](C[C@H]2CC[C@H](C)[C@H]([C@@H](C)C(=O)O)O2)O[C@]2(O[C@](C)([C@H]3CC[C@@](C)([C@@H]4O[C@@H]([C@H]5O[C@@](O)(CO)[C@H](C)C[C@@H]5C)C[C@@H]4C)O3)C[C@H]2C)[C@@H]1C [NIGERICIN, Nigericin]
[1]
  ONSET TO MAX. RESPONSE: 3 days
  AHR (Subacute antihypertensive ratio): 4.0
  DURATION OF EFFECT: 9 days
[2]
  LD50: 190 mg/kg

## CC/C(=C\C=C\[C@@H]1C=C[C@@H]2[C@@H](CC)CC[C@H]2[C@@H]1C(=O)c1ccc[nH]1)[C@@H]1O[C@@H]([C@@H](C)C(=O)O)CC[C@@H]1C [X-14547A]
[1]
  ONSET TO MAX. RESPONSE: 2 days
  AHR (Subacute antihypertensive ratio): 0.58
  DURATION OF EFFECT: 3 days
[2]
  LD50: 129 mg/kg

## BROMOISOLASALOCID
[1]
  ONSET TO MAX. RESPONSE: 2 days
  AHR (Subacute antihypertensive ratio): 0.85
  DURATION OF EFFECT: 8 days
[2]
  LD50: > 1000 mg/kg

## Lysocellin
[1]
  ONSET TO MAX. RESPONSE: 2 days
  AHR (Subacute antihypertensive ratio): 2.08
  DURATION OF EFFECT: 3 days
[2]
  LD50: 225 mg/kg

## Monensin
[1]
  ONSET TO MAX. RESPONSE: 2 days
  AHR (Subacute antihypertensive ratio): 7.2
  DURATION OF EFFECT: 9 days
[2]
  LD50: 250 mg/kg
